Read-outs that look alike come from different tables or passages of the source.
Target: T1, DNA polymerase α (calf thymus pol α) (Bos taurus, UniProt A0AAA9TD94)
T1 construct: gene POLA1; pol α purified from calf thymus
T1 sequence (A0AAA9TD94 1-1441): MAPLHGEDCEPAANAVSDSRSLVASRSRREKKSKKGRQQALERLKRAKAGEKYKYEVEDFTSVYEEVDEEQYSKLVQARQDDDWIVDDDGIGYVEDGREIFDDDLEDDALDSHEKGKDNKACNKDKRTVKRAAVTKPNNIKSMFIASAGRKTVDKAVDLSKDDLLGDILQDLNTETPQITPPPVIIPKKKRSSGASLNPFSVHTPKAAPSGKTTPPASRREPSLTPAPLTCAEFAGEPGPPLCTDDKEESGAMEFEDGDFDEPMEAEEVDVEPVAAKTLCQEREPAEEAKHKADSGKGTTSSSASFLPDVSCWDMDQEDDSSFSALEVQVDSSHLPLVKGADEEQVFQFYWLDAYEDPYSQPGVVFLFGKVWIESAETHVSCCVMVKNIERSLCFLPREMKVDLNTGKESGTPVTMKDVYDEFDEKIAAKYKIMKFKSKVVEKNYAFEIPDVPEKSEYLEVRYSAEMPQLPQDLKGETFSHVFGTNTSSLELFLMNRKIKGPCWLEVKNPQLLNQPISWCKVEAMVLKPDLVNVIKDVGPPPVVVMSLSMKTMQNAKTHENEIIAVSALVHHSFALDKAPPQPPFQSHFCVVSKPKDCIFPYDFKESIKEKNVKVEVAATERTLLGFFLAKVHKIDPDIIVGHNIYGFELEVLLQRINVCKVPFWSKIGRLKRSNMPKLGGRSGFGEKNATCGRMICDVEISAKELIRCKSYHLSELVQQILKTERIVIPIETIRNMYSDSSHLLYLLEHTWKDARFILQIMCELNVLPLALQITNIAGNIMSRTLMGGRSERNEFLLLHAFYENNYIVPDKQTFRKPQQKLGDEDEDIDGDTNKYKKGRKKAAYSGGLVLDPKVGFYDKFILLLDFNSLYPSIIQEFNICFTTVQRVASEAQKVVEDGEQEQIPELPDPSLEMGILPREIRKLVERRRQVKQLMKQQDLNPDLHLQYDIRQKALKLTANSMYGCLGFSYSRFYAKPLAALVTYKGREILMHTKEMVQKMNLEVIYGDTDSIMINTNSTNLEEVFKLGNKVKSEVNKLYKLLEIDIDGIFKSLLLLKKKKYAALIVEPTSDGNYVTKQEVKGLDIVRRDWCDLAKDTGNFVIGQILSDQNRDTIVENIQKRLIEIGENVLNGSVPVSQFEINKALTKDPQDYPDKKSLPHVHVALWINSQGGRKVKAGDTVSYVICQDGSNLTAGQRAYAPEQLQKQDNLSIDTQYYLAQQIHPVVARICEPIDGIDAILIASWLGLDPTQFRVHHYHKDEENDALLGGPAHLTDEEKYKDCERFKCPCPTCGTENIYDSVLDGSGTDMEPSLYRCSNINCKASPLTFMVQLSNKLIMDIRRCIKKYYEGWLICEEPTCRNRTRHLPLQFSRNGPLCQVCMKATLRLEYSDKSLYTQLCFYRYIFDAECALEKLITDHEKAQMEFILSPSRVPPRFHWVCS
Test: [3H]-dTTP incorporation polymerase assay on poly(dA)/oligo(dT)[…]-18 with purified pol α
Format: biochemical

Compound | IC50 (read-out: IC50) [µM] | IC50 [µM]
CCCCCCCCCCCCOc1cc(O)c2c(c1)C1=CC(=O)C(O)=CC1(C)OC2=O (stereo not drawn) [compound 2, C12] | 1.4 | 
C[C@@]1(CO)[C@H](O)CC[C@@]2(C)[C@H]1CC[C@H]1C[C@@H]3C[C@@]12CC[C@]3(O)CO [compound 3, aphidicolin] |  | 14.5
COc1cc(O)c2c(c1)C1=CC(=O)C(O)=CC1(C)OC2=O (stereo not drawn) [compound 1, Dehydroaltenusin] | 9.9 | 

Source: publication PMC6245447, “Effect of Dehydroaltenusin-C12 Derivative, a Selective DNA Polymerase α Inhibitor, on DNA Replication in Cultured Cells” (Molecules, 2008)
